Test results taken from patent US9296710B2, “Bicyclo (3.1.0) hexane-2, 6-dicarboxylic acid derivatives as mGlu2 receptor agonist” (Eli Lilly and Company, priority 2011, dated 2016).
Values belong to the molecule of their own block, whether it stands above or below them.

Key:
[1] = both, human, pH 7.4
Procedure: Liver S9 fractions are obtained from Xenotech LLC (Lenexa, Mo.). The lot is from a pool of two donors, one male and one female. The liver S9 fraction is prepared and diluted using a homogenization buffer consisting of 50 mM Tris, pH 7.4 at 4° C. and 150 mM potassium chloride without EDTA. Prodrug compounds are incubated in the liver homogenate for 2 hours at 37° C., after which the concentration of compound is determined by LC/MS/MS. Hydrolysis of Clopidogrel to Clopidogrel Carboxylic Acid is utilized as an assay positive control.
Incubations are conducted in 96-well format and all prodrug compounds are run in duplicate on each day. Stock prodrug compound solutions are prepared in water at a concentration of 1 mM. Human liver S9 fraction is diluted to a final protein concentration of 0.5 mg/mL in 100 mM PBS buffer, pH 7.4. […]
LC/MS/MS quantification of compound formed during the incubation is performed on a Sciex API 4000, Analyst version 1.4.2, TURBOIONSPRAY®, positive ionization, and Selected Reaction Monitoring (SRM). […]
Concentrations of hydrolyzed compound in the incubation mixtures are determined from standard curves prepared by replicate two-fold dilution starting at 10 μM in 100 mM PBS pH 7.4 and subsequently quenched with methanol-internal standard solution identical to the samples. Averages and standard deviations are calculated using MICROSOFT® Office EXCEL® 2007. […]

[2] = test system: PCP-induced hyperlocomotor activity in rats; assay: Reversal of Phencyclidine (PCP)-Induced Hyperlocomotor Activity in Rats; type: in vivo; conditions: Rattus norvegicus
Description: Administration of NMDA receptor antagonists, such as ketamine or phencyclidine (PCP), produces psychotomimetic-like effects in humans that are similar to those symptoms observed in patients with schizophrenia.
Motor activity is monitored by placing individual male, Sprague-Dawley (Harlan, Indianapolis, Ind.) rats in transparent, plastic shoe-box cages of the dimensions 45×25×20 cm, with 1 cm depth of wood chips as bedding, and a metal grill on top of the cage. Motor monitors (Kinder Scientific) consist of a rectangular rack of 12 photobeams arranged in an 8×4 formation, (or a high density grouping of 22 in a 15×7 pattern) at a height of 5 cm, with a second rack (for measuring rearing behaviors) at a height of 15 cm. The shoe box cage is placed inside of these racks, with the racks on a 3 foot high tabletop in an isolated room. […] On the test day, rats are placed in the test cage and allowed to acclimate for 30 minutes prior to PCP challenge; rats are monitored for an additional 60 minutes following PCP administration.
Data analysis and ED50 calculations are conducted using GraphPad PRISM® (San Diego, Calif. USA). Power analyses have determined that 8-10 rats per group are needed to have appropriate statistical power for detecting treatment differences (power=0.8). […]

[3] = biological target: T1, human mGlu2 receptor (Homo sapiens, UniProt Q14416); assay: Human mGlu2 Agonist FLIPR Assay; type: cell-based
T1 construct: expressed in transfected cells; host or cells: AV-12 cells (Syrian hamster fibroblasts), co-transfected with rat EAAT1 and Galpha15
T1 sequence (Q14416 19-872): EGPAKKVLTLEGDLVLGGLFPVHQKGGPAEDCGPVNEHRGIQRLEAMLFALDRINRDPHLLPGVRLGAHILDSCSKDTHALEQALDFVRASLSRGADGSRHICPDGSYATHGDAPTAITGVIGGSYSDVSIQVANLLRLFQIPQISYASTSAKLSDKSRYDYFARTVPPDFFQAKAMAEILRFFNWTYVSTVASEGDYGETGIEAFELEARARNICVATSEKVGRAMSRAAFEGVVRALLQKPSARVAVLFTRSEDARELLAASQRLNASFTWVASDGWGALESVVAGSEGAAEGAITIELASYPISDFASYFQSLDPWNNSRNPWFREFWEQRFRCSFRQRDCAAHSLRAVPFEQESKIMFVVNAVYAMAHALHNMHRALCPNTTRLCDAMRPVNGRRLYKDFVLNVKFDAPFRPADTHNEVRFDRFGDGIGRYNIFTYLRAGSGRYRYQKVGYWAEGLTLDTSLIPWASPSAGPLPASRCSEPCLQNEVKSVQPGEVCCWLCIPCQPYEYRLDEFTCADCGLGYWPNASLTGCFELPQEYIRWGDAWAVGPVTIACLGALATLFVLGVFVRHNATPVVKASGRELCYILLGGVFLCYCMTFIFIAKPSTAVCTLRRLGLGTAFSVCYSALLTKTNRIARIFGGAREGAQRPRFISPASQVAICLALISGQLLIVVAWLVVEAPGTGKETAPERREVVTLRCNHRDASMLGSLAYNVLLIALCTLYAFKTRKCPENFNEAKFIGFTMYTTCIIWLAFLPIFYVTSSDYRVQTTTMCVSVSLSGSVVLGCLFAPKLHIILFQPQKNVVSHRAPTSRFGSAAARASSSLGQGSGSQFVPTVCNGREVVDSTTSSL
Description: AV-12 cell lines, derived from Syrian Hamster fibroblasts and stably expressing the human mGlu2 receptor and co-transfected with the rat glutamate transporter EAAT 1 (Excitatory Amino Acid Transporter 1) and the Gα15 subunit, are used for these studies. The expression of Gα15 allows Gi-coupled receptors to signal through the phospholipase C pathway, resulting in the ability to measure receptor activation by a fluorometric calcium response assay. The cell lines are maintained by culturing in Dulbecco's Modified Eagle's Medium (DMEM) with high glucose and pyridoxine hydrochloride supplemented with 5% dialyzed fetal bovine serum, 1 mM sodium pyruvate, 10 mM HEPES [4-(2-hydroxyethyl)-1-piperazineethanesulfonic acid], 1 mM of L-glutamine, and 5 μg/mL blasticidin (all media are purchased from Invitrogen). Confluent cultures are passaged biweekly using an enzyme-free dissociation solution (Chemicon S-004-B).
Intracellular calcium levels are monitored before and after the addition of compounds using a Fluorometric Imaging Plate Reader (FLIPR®, Molecular Devices). The assay buffer is comprised of Hank's Buffered Salt Solution (HBSS; Sigma) supplemented with 20 mM HEPES. […] The dye solution is removed and replaced with fresh assay buffer (50 μL per well). […] Results are analyzed using PRISM® v4.03 (GraphPad Software). […] Exemplified compounds of the present invention are solubilized as 10 mM stocks in 0.1N NaOH and stored at −20 C. They are diluted through a three-fold dilution series into assay buffer. After taking an initial 5-sec fluorescent read on the FLIPR® instrument, a compound of the present invention is added to the cell plate (50 μL per well). Data are collected every second for the first 30 seconds and then every 3 seconds for a total of 90 seconds in order to detect agonist activity. The maximal response is defined as that induced by ECmax (100 μM glutamate). The compound effect is measured as maximal minus minimal peak heights in relative fluorescent units (RFUs) corrected for basal fluorescence measured in the absence of glutamate. Determinations are carried out using single plates. Agonist effects are quantified as percent stimulation induced by compound alone relative to the maximal glutamate response. All data are calculated as relative EC50 values using a four-parameter logistic curve fitting program (ACTIVITY BASE® v5.3.1.22).

[4] = test system: stress-induced hyperthermia in rats; assay: Attenuation of Stress-Induced Hyperthermia in Rats; type: in vivo, rat; conditions: i.p.
Description: In many anxiety disorders, hyperthermia occurs as part of the pathology and is considered a symptom of the disease. Compounds which attenuate stress-induced hyperthermia in animals are believed to be useful in treating anxiety disorders in humans. Generalized anxiety disorder is an example of such disorders that may be treated with such compounds. The conventional and minimally-invasive method for analyzing stress-induced hyperthermia is by measuring body temperature, and stress-induced increases in body temperature, via rectal thermometer. Male Fischer F-344 rats (Harlan, Indianapolis, Ind., USA) weighing between 275-350 g are tested. All animals are individually-housed with food and automated water available ad libitum, and maintained on a 12 h light/dark cycle (lights on at 06:00) Animals are fasted for approximately 12-18 hours before the experiment, which is conducted during the light phase. Rats are dosed one hour prior to the experiment by intraperitoneal (i.p.) route of administration in a dose volume of 1 mL/kg. The vehicle used was water with enough NaOH added to achieve a pH between 5-7. The mGluR5 antagonist MTEP (3-[(2-methyl-1,3-thiazol-4-yl)ethynyl]pyridine) and mGlu2/3 agonist LY317206 were used as quality controls, given that they produced reliable efficacy in this model Immediately following dosing, rats are returned to their home cage, and the experimenter turns off the lights and leaves the room. The dosing room is darkened for the remainder of the 1-hr pretreatment period.
After the pretreatment period, rats are taken individually to a brightly lit adjacent room where baseline body temperatures are determined by insertion of a rectal probe lubricated with mineral oil. Body temperature is assessed using a […] BAT-12® Microprobe Thermometer with a […] RET-2® rat rectal probe (Physitemp Instruments Inc., Clifton, N.J., USA). The probe is inserted approximately 2 cm into the rectum, to measure the core body temperature (this is the baseline body temperature, T1, in degrees Celsius). Ten minutes later a second body temperature measurement is recorded (T2). […]

Hydrolysis of Clopidogrel to Clopidogrel Carboxylic Acid (positive control) [1]: 73.0%
Structure (SMILES): COC(=O)[C@H](c1ccccc1Cl)N1CCc2sccc2C1 [Clopidogrel]

EC50 ([3]; hMGLUR2 FLIPR assay, AV-12 cells expressing human mGlu2, calcium response, read-out: Relative EC50): 0.0691 µM
Emax ([3]; percent stimulation relative to maximal glutamate response (100 μM glutamate), read-out: Relative % Efficacy): 89%
Structure (SMILES): N[C@@]1(C(=O)O)C[C@H](Sc2nc[nH]n2)[C@H]2[C@H](C(=O)O)[C@H]21 [Example 10, (1R,2S,4S,5R,6R)-2-amino-4-(1H-1,2,4-triazol-3-ylsulfanyl)bicyclo[3.1.0]hexane-2,6-dicarboxylic acid]
ED50 ([2]; i.p. administration, 30 minutes prior to 5 mg/kg PCP): 0.9 mg/kg
maximal reduction of stress-induced hyperthermia ([4]; at 10 mg/kg): 75%
T35 (dose producing 35% reduction in stress-induced hyperthermic response) ([4]; one hour pretreatment): 1.7 mg/kg

Structure (SMILES): CSCC[C@H](N)C(=O)N[C@@]1(C(=O)O)C[C@H](Sc2nnc[nH]2)[C@H]2[C@H](C(=O)O)[C@H]21.Cl [Example 25, (1R,2S,4S,5R,6R)-2-(L-methionylamino)-4-(4H-1,2,4-triazol-3-ylsulfanyl) bicyclo[3.1.0] hexane-2,6-dicarboxylic acid hydrochloride]
ED50 ([2]; oral administration (prodrug), overnight fasted, 4 hours prior to 5 mg/kg PCP): 6.4 mg/kg
